Laboratory results from US20220364056A1, “SHORT-CHAIN FATTY ACID PENTANOATE AS ENHANCER FOR CELLULAR THERAPY AND ANTI-TUMOR THERAPY” (PHILIPPS-UNIVERSITÄT MARBURG, priority 2019, published 2022).

Legend:
[1] = system: promoter region of Ifnγ, Tbx21 and Eomes; test: pan-H4Ac ChIP at CTL-characteristic loci; type: cell-based, mice; details: 24 hours of treatment
Protocol: (A) Experimental design for the treatment of CTLs with the water-soluble fraction of intestinal content derived from SPF or GF mice. (B and C) Frequencies of IFN-γ- and TNF-α-producing CTLs treated with the extract from luminal content derived from indicated organs. Representative results of two experiments are shown (n=3). (D) ELISA was performed to measure the secretion of TNF-α by CLTs treated as shown in (A). (E) Quantitative measurement of total SCFA amounts in fecal samples of SPF and GF mice (n=5). (F and G) The percentage of IFN-γ^+ TNF-α^+ CTLs treated with the indicated SCFAs for three days (n=3, one of three independent experiments is shown). (H) The secretion of TNF-α from CTLs treated with SCFAs was determined by ELISA (n=3, one of two independent experiments is shown). (I) The fluorogenic HDAC assay was applied to measure the HDAC inhibitory activity of SCFAs on CTLs. The value for unstimulated CTLs was arbitrarily set to 1.0. Four independent experiments were performed. (J and K) Representative contour plots (J) and bar graphs (K) showing the frequency of IFN-γ+ and TNF-α+ cells after pentanoate (2 mM) or VPA (0.5 mM) administration. Three similar experiments were performed. (L and M) The frequency of Eomes- and T-bet-expressing CTLs treated with pentanoate (2 mM) or VPA (0.5 mM) for three days was analyzed by flow cytometry (n=4). […]

B16OVA melanoma cells = test: adoptive transfer of pretreated OT-I CTLs into mice bearing s.c. B16OVA tumors; type: in vivo
HDAC2 = HDAC2 (Homo sapiens, UniProt Q92769); test: HDAC inhibition of the recombinant HDAC2 isoform; type: biochemical; details: supernatants; different concentrations of SCFAs
Protocol: (A) The production of SCFAs, branched-chain fatty acids (BCFAs) and medium-chain fatty acids (MCFAs) by 16 human commensals was measured by GC-MS. All bacteria were grown in vitro until stationary growth phase before the measurement of fatty acids in supernatants. (B and C) HDAC inhibition of recombinant class I and class II HDAC isoforms by cell-free supernatants derived from 16 members of human commensal community. Significance was tested against YCFA medium. (D) Impact of bacterial SCFAs, BCFAs and MSCFAs on the activity of class I and II HDAC enzymes. TSA was used as a control pan-HDAC inhibitor.

STAT5 = test: IL-2-induced phosphorylation of STAT5 in CTLs, flow cytometry; type: cell-based, murine; details: CTLs generated with pentanoate 3 day, IL-2 50 U/ml
Text: (A) experimental setup for investigating CTL persistence in vivo is shown. (B-D) The frequency (B, C) and total cell numbers (D) of transferred T cells (WT CD45.1^+ CTLs, WT CD45.2^+ pentanoate-treated CTLs and Foxp3^+CD45.2^+ Tregs from FIR×tiger mice) in Rag1-deficient mice on days 15 after the adoptive transfer are shown. The co-transferred Foxp3^−CD4^+ cells were excluded from the gate (B, C). In D, n=_3 mice/group/experiment, data from 2 pooled independent experiments are shown. (E) The CFSE label of transferred T cells (WT CD45.1 CTLs, WT CD45.2^+ pentanoate-treated CTLs and CD45.2^+CD4^+ T cells) in Rag1-deficient mice on days 4 after the adoptive transfer are shown (n=3 mice/group/experiment, data pooled from 2 independent experiments are shown). […] (G and H) Frequencies and cell numbers of CD25^+ CD8^+ T cells were analysed by flow cytometry on day 15 after transfer of control CTLs (CD45.1^+) and pentanoate-treated CTLs (CD45.2^+) into Rag1-deficient mice (n=3 mice/group/experiment, data pooled from 2 independent experiments). […] The phosphorylated (p)-STAT5 levels were analysed by flow cytometry (n=5, performed in 3 independent experiments). (J) The secretion of IL-2 in pentanoate-treated CTLs cultured for indicated time points was measured by ELISA (n=4, pooled from 2 independent experiments).

[2] = system: murine ROR1-recognizing CAR T lymphocytes; test: murine ROR1-specific CAR T cells stimulated with HDACi, ELISA and flow cytometry; type: cell-based; details: three days of stimulation
Protocol: (A) Experimental design for the analysis HDACi-treated ROR1-specific CD8^+ CAR T cells (CARROR1+HDAC). (B and C) The production of TNF-α and IFN-γ from CAR T cells was measured by ELISA and flow cytometry analysis after three days of stimulation with the indicated HDACi. (D) The surface expression of CD25 on CAR T cells was measured by flow cytometry analysis after three days of stimulation with the indicated HDACi (n=3 combined from 3 independent experiments). (E and F) After three days of pre-treatment with pentanoate, CD19t^+ ROR1-specific CAR T cells were transferred intraperitoneally (i.p) into mice bearing 5-days old PancROR1 tumors. In E, Tumor volume and tumor mass were analyzed (n=3 mice/group/experiment combined from 2 independent experiments). (F) The percentage and total cell number of transferred TNF-α and IFN-γ CD19t^+ ROR1-specific CART cells in the tumor tissue at day 14 after tumor inoculation are shown.

[3] = system: ROR1-expressing Panc02 pancreatic tumor cells (PancROR1); test: transfer of pretreated ROR1-specific CAR T cells into mice bearing s.c. PancROR1 tumors; type: in vivo

Sequence of HDAC2 (Q92769 whole entry, species assumed, canonical isoform): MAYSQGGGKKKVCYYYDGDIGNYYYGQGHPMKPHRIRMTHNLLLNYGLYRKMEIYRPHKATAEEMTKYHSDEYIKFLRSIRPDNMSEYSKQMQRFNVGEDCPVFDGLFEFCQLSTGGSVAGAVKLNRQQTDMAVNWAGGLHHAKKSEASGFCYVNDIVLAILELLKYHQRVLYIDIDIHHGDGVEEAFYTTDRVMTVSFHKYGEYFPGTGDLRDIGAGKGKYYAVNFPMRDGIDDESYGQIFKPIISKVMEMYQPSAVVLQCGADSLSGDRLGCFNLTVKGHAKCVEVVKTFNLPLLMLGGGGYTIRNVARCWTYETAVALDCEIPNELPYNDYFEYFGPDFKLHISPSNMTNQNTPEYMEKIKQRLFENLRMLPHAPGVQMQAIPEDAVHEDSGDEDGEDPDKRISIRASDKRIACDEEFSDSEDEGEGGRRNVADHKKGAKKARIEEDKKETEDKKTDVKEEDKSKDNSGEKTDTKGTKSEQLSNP

## CCCCC(=O)O [pentanoate]
[1]
  H4 acetylation at the promoter region of Ifnγ, Tbx21 and Eomes: enhance H4 acetylation
B16OVA melanoma cells; OT-I CTLs pretreated three days with pentanoate, transferred day 5 after tumor injection
  tumor volume and weight: decreased tumor volume and weight
B16OVA melanoma cells; day 10 after adoptive transfer, vs control OT-I CTLs
  number of transferred cells expressing TNF-α and IFN-γ in tumors, draining LNs and spleen: higher number
HDAC2
  inhibition of the HDAC2 isoform: strongly inhibited
STAT5
  STAT5 activity in response to IL-2: stronger STAT5 activity
[2]
  TNF-α and IFN-γ production of CAR T cells: enhanced
  expression of CD25 on CAR T cells: enhanced
[3]; day 10 following administration of pentanoate-treated CAR T cells
  tumor volume and weight: significantly diminished
[3]; vs control CAR T lymphocytes
  frequency and number of IFN-γ+TNF-α+ CAR T cells in tumors: elevated frequency and number
